Data published in US20260207590A1, “CTPS1 INHIBITORS FOR USE IN THE TREATMENT OF CTPS2 DEFICIENT CANCER” (STEP PHARMA S.A.S., priority 2022, published 2026).

Assays:
human cancer cell lines = test: Human cancer cell line viability with CTPS-IA (CellTiter-Glo, 72 hours), IC50 correlated with CTPS1/CTPS2 RNA expression; type: cell-based; settings: all three cell line sets (19, 60, 103 lines); P-value>0.05 in all cases
Excerpt: CTPS2 expression levels were also found to correlate with IC50 values for CTPS-IA. […] A nonlinear regression model was used to calculate half maximal inhibitory concentration (IC50). CTPS1 and CTPS2 expression levels, measured by RNA abundance, were either generated by RNA sequencing or retrieved from the publicly available Cancer Cell Line Encyclopedia. In a set of 19 human cancer cell lines derived from haematological cancers, lower CTPS2 expression was associated with increased sensitivity to CTPS-IA (Pearson correlation r=0.50, P-value=0.0007). In a set of 60 human cancer cell lines covering common cancer types, lower CTPS2 expression was associated with increased sensitivity to CTPS-IA (Pearson correlation r=0.24, P-value=<0.0001). In an independent set of 103 human cancer cell lines covering common cancer types, lower CTPS2 expression was associated with increased sensitivity to CTPS-IA (Pearson correlation r=0.14, P-value=<0.0001).

CTPS1 = target: T1, CTPS1 (Homo sapiens, UniProt P17812); settings: see e.g. WO2020083975 (CTPS-IA), WO2020245664 (CTPS-IB); cited from earlier work
T1 sequence (P17812 1-591): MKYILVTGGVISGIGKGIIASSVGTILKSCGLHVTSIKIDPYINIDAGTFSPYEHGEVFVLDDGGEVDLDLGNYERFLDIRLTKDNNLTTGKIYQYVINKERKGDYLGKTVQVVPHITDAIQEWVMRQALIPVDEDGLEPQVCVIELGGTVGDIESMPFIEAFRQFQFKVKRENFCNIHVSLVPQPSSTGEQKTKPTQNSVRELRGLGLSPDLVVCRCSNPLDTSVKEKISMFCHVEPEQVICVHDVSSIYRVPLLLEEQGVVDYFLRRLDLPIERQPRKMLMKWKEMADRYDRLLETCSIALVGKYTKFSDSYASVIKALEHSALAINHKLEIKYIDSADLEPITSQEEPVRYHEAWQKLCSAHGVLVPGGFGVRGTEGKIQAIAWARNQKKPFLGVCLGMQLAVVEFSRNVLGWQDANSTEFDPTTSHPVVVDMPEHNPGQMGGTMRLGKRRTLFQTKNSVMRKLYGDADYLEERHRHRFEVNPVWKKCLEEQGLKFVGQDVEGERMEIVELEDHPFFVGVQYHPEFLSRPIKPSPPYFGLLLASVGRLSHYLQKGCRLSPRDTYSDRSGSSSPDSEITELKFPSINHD

SMILES | Association of the level of CTPS1 expression with sensitivity to CTPS-IA (human cancer cell lines) | CTPS1 inhibition and selectivity (in words) (CTPS1)
CCOc1cncc(-c2ccc(NC(=O)C3(c4ccnc(NS(=O)(=O)C5CC5)n4)CCOCC3)nc2)n1 [CTPS-IA, 4-(2-(cyclopropanesulfonamido)pyrimidin-4-yl)-N-(5-(6-ethoxypyrazin-2-yl)pyridin-2-yl)tetrahydro-2H-pyran-4-carboxamide] | not associated with sensitivity to CTPS-IA | potent and selective inhibitor of CTPS1
CCOc1cncc(-c2ccc(NC(=O)C3(c4ccnc(NS(=O)(=O)CC)n4)CCOCC3)nc2)n1 [CTPS-IB, N-(5-(6-ethoxypyrazin-2-yl)pyridin-2-yl)-4-(2-(ethylsulfonamido)pyrimidin-4-yl)tetrahydro-2H-pyran-4-carboxamide] |  | potent and selective inhibitor of CTPS1
